In EP4273147A1, “SUBSTITUTED SPIROLACTAMS, SALTS THEREOF AND THEIR USE AS HERBICIDALLY ACTIVE SUBSTANCES” (Bayer Aktiengesellschaft, priority 2022, dated 2023):

Legend:
SETVI [1] = test: Herbicidal pre-emergence action (Table A5); assay type: in vivo, Setaria viridis; settings: visual grading after ca. 3 weeks
Procedure, shortened: (§1)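 One monocotyledonous and one dicotyledonous weed species shared each pot. Seeds were sown in sandy loam and covered over with soil.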

STEME = test: Herbicidal pre-emergence action (Table A6); assay type: in vivo, Stellaria media; settings: application rate 320 g/ha; visual grading after ca. 3 weeks
Procedure, shortened: as §1

POAAN [2] = test: Herbicidal pre-emergence action (Table A7); assay type: in vivo, Poa annua; settings: visual grading after ca. 3 weeks
Procedure, shortened: as §1

POAAN [3] = test: Herbicidal post-emergence action (Table B7); assay type: in vivo, Poa annua; settings: application rate 1280 g/ha
Procedure, shortened: (§2)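 Visual rating against untreated plants (0% = as control, 100% = dead) made roughly 3 weeks after application. Weed species were grown in sandy loam pots under greenhouse conditions and sprayed at the one-leaf stage, 2–3 weeks post-sowing.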

AMARE = test: Herbicidal post-emergence action (Table B11); assay type: in vivo, Amaranthus retroflexus
Procedure: (§3) Seeds of mono- and dicotyledonous weed plants were placed in plastic pots in sandy loam soil (doubly sown with in each case one species of mono- or dicotyledonous weed plants per pot), covered with soil and cultivated in a greenhouse under controlled growth conditions. 2 to 3 weeks after sowing, the test plants were treated at the one-leaf stage. […] After the test plants had been kept in the greenhouse under optimum growth conditions for about 3 weeks, the activity of the preparations was rated visually in comparison to untreated controls. For example, 100% activity = the plants have died, 0% activity = like control plants.

ECHCG [4] = test: Herbicidal pre-emergence action (Table A2); assay type: in vivo, Echinochloa crus-galli; settings: visual grading after ca. 3 weeks
Procedure, shortened: as §1

LOLRI [5] = test: Herbicidal pre-emergence action (Table A3); assay type: in vivo, Lolium rigidum; settings: visual grading after ca. 3 weeks
Procedure, shortened: as §1

MATIN [6] = test: Herbicidal pre-emergence action (Table A4); assay type: in vivo, Matricaria inodora; settings: application rate 1280 g/ha; visual grading after ca. 3 weeks
Procedure, shortened: as §1

KCHSC = test: Herbicidal pre-emergence action (Table A10); assay type: in vivo, Kochia scoparia; settings: application rate 1280 g/ha; visual grading after ca. 3 weeks
Procedure, shortened: as §1

ECHCG [7] = test: Herbicidal post-emergence action (Table B3); assay type: in vivo, Echinochloa crus-galli; settings: application rate 1280 g/ha; rated visually after about 3 weeks
Procedure, shortened: as §2

MATIN [8] = test: Herbicidal post-emergence action (Table B6); assay type: in vivo, Matricaria inodora; settings: rated visually after about 3 weeks
Procedure: as §3

DIGSA [9] = test: Herbicidal pre-emergence action (Table A12); assay type: in vivo, Digitaria sanguinalis; settings: application rate 320 g/ha; visual grading after ca. 3 weeks
Procedure, shortened: as §1

DIGSA [10] = test: Herbicidal pre-emergence action, section C (Table C5); assay type: in vivo, Digitaria sanguinalis; settings: application rate 320 g/ha; visual grading after ca. 3 weeks
SETVI [11] = test: Herbicidal pre-emergence action, section C (Table C10); assay type: in vivo, Setaria viridis; settings: application rate 320 g/ha; visual grading after ca. 3 weeks
VIOTR = test: Herbicidal pre-emergence action, section C (Table C12); assay type: in vivo, Viola tricolor; settings: application rate 320 g/ha; visual grading after ca. 3 weeks
ZEAMX [12] = test: Pre-emergence effects on crop plants (Table D1); assay type: in vivo, Zea mays; settings: crop plant; application rate 80 g/ha; visual grading after ca. 3 weeks
From the text: Seeds of mono- and dicotyledonous weed plants and crop plants were sown, in plastic or organic planting pots, in sandy loam and covered with soil. The compounds according to the invention, formulated in the form of wettable powders (WP) or as emulsifiable concentrates (EC), were applied to the surface of the covering soil as aqueous suspension or emulsion, with the addition of 0.5% of an additive, at an application rate of 600 1 of water/ha (converted).
Following treatment, the pots were placed in a greenhouse and kept under optimum growth conditions for the test plants.

TRZAS [13] = test: Pre-emergence effects on crop plants (Table D2); assay type: in vivo, Triticum aestivum; settings: crop plant; application rate 320 g/ha; visual grading after ca. 3 weeks
BRSNW [14] = test: Pre-emergence effects on crop plants (Table D5); assay type: in vivo, Brassica napus; settings: crop plant; application rate 320 g/ha; visual grading after ca. 3 weeks
ZEAMX [15] = test: Post-emergence effects on crop plants (Table F1); assay type: in vivo, Zea mays; settings: crop plant ZEAMX
From the text: (§4) 2 to 3 weeks after sowing, the test plants were sprayed in the single-leaf stage.

TRZAS [16] = test: Post-emergence effects on crop plants (Table F2); assay type: in vivo, Triticum aestivum; settings: application rate 320 g/ha, crop plant TRZAS
From the text: as §4

ORYZA [17] = test: Post-emergence effects on crop plants (Table F3); assay type: in vivo, Oryza sativa; settings: application rate 320 g/ha, crop plant ORYZA
From the text: as §4

GLXMA [18] = test: Post-emergence effects on crop plants (Table F4); assay type: in vivo, Glycine max; settings: application rate 320 g/ha, crop plant GLXMA
From the text: as §4

BRSNW [19] = test: Post-emergence effects on crop plants (Table F5); assay type: in vivo, Brassica napus; settings: application rate 320 g/ha, crop plant BRSNW
From the text: as §4

ORYZA [20] = test: Pre-emergence effects on crop plants (Table D3); settings: crop plant, visual grading after ca. 3 weeks
ALOMY [21] = test: Herbicidal pre-emergence action (Table A9); assay type: in vivo, Alopecurus myosuroides; settings: application rate 1280 g/ha; visual grading after ca. 3 weeks
From the text: Seeds of mono- and dicotyledonous weed plants were sown in plastic pots (double sowings with one species of mono- and one species of dicotyledonous weed plants per pot), in sandy loam, and covered with soil.

ALOMY [22] = test: Herbicidal pre-emergence action, section C (Table C2); assay type: in vivo, Alopecurus myosuroides; settings: application rate 320 g/ha; visual grading after ca. 3 weeks
ECHCG [23] = test: Herbicidal pre-emergence action, section C (Table C6); assay type: in vivo, Echinochloa crus-galli; settings: application rate 80 g/ha; visual grading after ca. 3 weeks
LOLRI [24] = test: Herbicidal pre-emergence action, section C (Table C7); assay type: in vivo, Lolium rigidum; settings: application rate 320 g/ha; visual grading after ca. 3 weeks
GLXMA [25] = test: Pre-emergence effects on crop plants (Table D4); assay type: in vivo, Glycine max; settings: crop plant; application rate 80 g/ha; visual grading after ca. 3 weeks
ECHCG [26] = test: Herbicidal post-emergence action, section E (Table E5); assay type: in vivo, Echinochloa crus-galli; settings: application rate 320 g/ha; assessed visually after ca. 3 weeks
From the text: as §4

Compound: COc1c(F)ccc(CN2CCCC3(CCCN(Cc4ccc(F)c(OC)c4F)C3=O)C2=O)c1F (racemic) [I-019]
- pre-emergence activity against SETVI (SETVI [1]; application rate 1280 g/ha): 100%
- pre-emergence activity against STEME (STEME): 100%
- pre-emergence activity against POAAN (POAAN [2]; application rate 320 g/ha): 100%
- post-emergence activity against POAAN (POAAN [3]): 100%
- post-emergence activity against AMARE (AMARE; application rate 1280 g/ha): 100%

Compound: O=C1N(Cc2c(F)cccc2F)CCC12CCN(Cc1c(F)cccc1F)C2=O (racemic) [I-101]
- pre-emergence activity against ECHCG (ECHCG [4]; application rate 1280 g/ha): 90%
- pre-emergence activity against LOLRI (LOLRI [5]; application rate 1280 g/ha): 90%
- pre-emergence activity against MATIN (MATIN [6]): 90%
- pre-emergence activity against SETVI (SETVI [1]; application rate 1280 g/ha): 90%
- pre-emergence activity against POAAN (POAAN [2]; application rate 1280 g/ha): 100%
- pre-emergence activity against KCHSC (KCHSC): 90%
- post-emergence activity against ECHCG (ECHCG [7]): 90%
- post-emergence activity against MATIN (MATIN [8]; application rate 1280 g/ha): 90%
- post-emergence activity against POAAN (POAAN [3]): 90%
- post-emergence activity against AMARE (AMARE; application rate 1280 g/ha): 90%

Compound: Cc1cccc(CN2CCCC3(CCCN(Cc4cccc(C)c4F)C3=O)C2=O)c1F (racemic) [I-053]
- pre-emergence activity against ECHCG (ECHCG [4]; application rate 1280 g/ha): 100%
- pre-emergence activity against LOLRI (LOLRI [5]; application rate 1280 g/ha): 90%
- pre-emergence activity against SETVI (SETVI [1]; application rate 1280 g/ha): 100%
- pre-emergence activity against POAAN (POAAN [2]; application rate 320 g/ha): 100%
- pre-emergence activity against DIGSA (DIGSA [9]): 100%
- post-emergence activity against MATIN (MATIN [8]; application rate 320 g/ha): 90%
- post-emergence activity against POAAN (POAAN [3]): 90%
- pre-emergence activity against DIGSA (DIGSA [10]): 100%
- pre-emergence activity against SETVI (SETVI [11]): 100%
- pre-emergence activity against VIOTR (VIOTR): 90%
- pre-emergence activity against ZEAMX (ZEAMX [12]): 0%
- pre-emergence activity against TRZAS (TRZAS [13]): 0%
- pre-emergence activity against BRSNW (BRSNW [14]): 10%
- post-emergence activity against ZEAMX (ZEAMX [15]; application rate 320 g/ha): 0%
- post-emergence activity against TRZAS (TRZAS [16]): 10%
- post-emergence activity against ORYZA (ORYZA [17]): 0%
- post-emergence activity against GLXMA (GLXMA [18]): 0%
- post-emergence activity against BRSNW (BRSNW [19]): 20%
- pre-emergence activity against ORYZA (ORYZA [20]; application rate 320 g/ha): 0%

Compound: O=C1N(Cc2ccccc2F)CCC12CCN(Cc1ccccc1F)C2=O (racemic) [I-097]
- pre-emergence activity against ECHCG (ECHCG [4]; application rate 1280 g/ha): 90%
- pre-emergence activity against LOLRI (LOLRI [5]; application rate 1280 g/ha): 90%
- pre-emergence activity against MATIN (MATIN [6]): 90%
- pre-emergence activity against SETVI (SETVI [1]; application rate 1280 g/ha): 100%
- pre-emergence activity against KCHSC (KCHSC): 90%
- post-emergence activity against AMARE (AMARE; application rate 1280 g/ha): 90%

Compound: O=C1N(Cc2ccccn2)CCCC12CCCN(Cc1cccc(F)c1F)C2=O (racemic) [I-108]
- pre-emergence activity against ECHCG (ECHCG [4]; application rate 320 g/ha): 90%
- pre-emergence activity against MATIN (MATIN [6]): 90%
- pre-emergence activity against SETVI (SETVI [1]; application rate 1280 g/ha): 90%
- pre-emergence activity against POAAN (POAAN [2]; application rate 1280 g/ha): 90%
- pre-emergence activity against ALOMY (ALOMY [21]): 90%
- post-emergence activity against AMARE (AMARE; application rate 1280 g/ha): 90%

Compound: O=C1N(Cc2cccs2)CCCC12CCCN(Cc1ccccc1F)C2=O (racemic) [I-065]
- pre-emergence activity against ECHCG (ECHCG [4]; application rate 320 g/ha): 90%
- pre-emergence activity against LOLRI (LOLRI [5]; application rate 320 g/ha): 100%
- pre-emergence activity against SETVI (SETVI [1]; application rate 320 g/ha): 90%
- pre-emergence activity against ALOMY (ALOMY [21]): 90%
- pre-emergence activity against KCHSC (KCHSC): 90%
- post-emergence activity against POAAN (POAAN [3]): 90%
- post-emergence activity against AMARE (AMARE; application rate 1280 g/ha): 90%

Compound: COc1ccccc1CN1CCCC2(CCCN(Cc3cccc(F)c3F)C2=O)C1=O (racemic) [I-052]
- pre-emergence activity against ECHCG (ECHCG [4]; application rate 320 g/ha): 100%
- pre-emergence activity against LOLRI (LOLRI [5]; application rate 320 g/ha): 100%
- pre-emergence activity against SETVI (SETVI [1]; application rate 320 g/ha): 100%
- post-emergence activity against ECHCG (ECHCG [7]): 90%
- post-emergence activity against AMARE (AMARE; application rate 320 g/ha): 90%
- pre-emergence activity against ALOMY (ALOMY [22]): 90%
- pre-emergence activity against ECHCG (ECHCG [23]): 100%
- pre-emergence activity against LOLRI (LOLRI [24]): 90%
- pre-emergence activity against SETVI (SETVI [11]): 100%
- pre-emergence activity against VIOTR (VIOTR): 80%
- pre-emergence activity against ZEAMX (ZEAMX [12]): 0%
- pre-emergence activity against GLXMA (GLXMA [25]): 20%
- pre-emergence activity against BRSNW (BRSNW [14]): 0%
- post-emergence activity against ECHCG (ECHCG [26]): 80%
- post-emergence activity against ZEAMX (ZEAMX [15]; application rate 80 g/ha): 0%
- post-emergence activity against TRZAS (TRZAS [16]): 0%
- post-emergence activity against ORYZA (ORYZA [17]): 20%
- post-emergence activity against BRSNW (BRSNW [19]): 0%
- pre-emergence activity against ORYZA (ORYZA [20]; application rate 80 g/ha): 20%
